# From ChEMBL document CHEMBL4130498, “Synthesis and antibacterial activity of new symmetric polyoxygenated dibenzofurans” (Eur J Med Chem, 2017)
# Structures can show the parent of a compound that is named as a salt.
# How the values were obtained:
# Saccharomyces cerevisiae [1] = experiment: Toxicity in Saccharomyces cerevisiae BY4741 assessed as cell growth at 128 uM after 24 to 48 hrs by broth microdilution method relative to control; type: organism-based
# Saccharomyces cerevisiae [2] = experiment: Toxicity in Saccharomyces cerevisiae harboring rad52/rad9 deletion mutant after 24 to 48 hrs by broth microdilution method; type: organism-based; conditions: in vivo
# Saccharomyces cerevisiae [3] = experiment: Toxicity in Saccharomyces cerevisiae harboring mad2 deletion mutant assessed as cell growth at 128 uM after 24 to 48 hrs by broth microdilution method relative to control; type: organism-based; conditions: in vivo
# Saccharomyces cerevisiae [4] = experiment: Toxicity in Saccharomyces cerevisiae harboring yap1 deletion mutant after 24 to 48 hrs by broth microdilution method; type: organism-based; conditions: in vivo
# Saccharomyces cerevisiae [5] = experiment: Toxicity in Saccharomyces cerevisiae harboring yap1 deletion mutant assessed as cell growth at 128 uM after 24 to 48 hrs by broth microdilution method relative to control; type: organism-based; conditions: in vivo
# Enterococcus faecalis = experiment: microbe, parasite or virus in culture; type: functional; conditions: ATCC 29212, 24 h
# Description: Antibacterial activity against Enterococcus faecalis ATCC 29212 after 24 hrs by broth microdilution method
# Saccharomyces cerevisiae [6] = experiment: Toxicity in Saccharomyces cerevisiae harboring rad52/rad9 deletion mutant assessed as cell growth at 128 uM after 24 to 48 hrs by broth microdilution method relative to control; type: organism-based; conditions: in vivo
# Staphylococcus aureus [7] = experiment: Antibacterial activity against methicillin-sensitive Staphylococcus aureus ATCC 25923 after 24 hrs by broth microdilution method; type: functional; conditions: ATCC 25923, 24 h
# Saccharomyces cerevisiae [8] = experiment: Toxicity in Saccharomyces cerevisiae harboring mad2 deletion mutant after 24 to 48 hrs by broth microdilution method; type: organism-based; conditions: in vivo
# Saccharomyces cerevisiae [9] = experiment: Toxicity in Saccharomyces cerevisiae BY4741 after 24 to 48 hrs by broth microdilution method; type: organism-based; conditions: in vivo
# Staphylococcus aureus [10] = experiment: Antibacterial activity against methicillin-resistant vancomycin-intermediate resistant Staphylococcus aureus NRS402 after 24 hrs by broth microdilution method; type: functional; conditions: NRS402, 24 h
SMILES,Activity (Saccharomyces cerevisiae [1]) [%],MIC (Saccharomyces cerevisiae [2]) [µM],Activity (Saccharomyces cerevisiae [3]) [%],MIC (Saccharomyces cerevisiae [4]) [µM],Activity (Saccharomyces cerevisiae [5]) [%],MIC (Enterococcus faecalis) [µM],Activity (Saccharomyces cerevisiae [6]) [%],MIC (Staphylococcus aureus [7]) [µM],MIC (Saccharomyces cerevisiae [8]) [µM],MIC (Saccharomyces cerevisiae [9]) [µM],MIC (Staphylococcus aureus [10]) [µM]
CCCc1c(O)cc(O)c(C(=O)C(C)CC)c1O (stereo not given),20 to 40,> 128,20 to 40,> 128,20 to 40,64,20 to 40,64,> 128,> 128,64
CCCc1c(O)c(C(=O)C(C)CC)c(O)c(-c2c(O)c(CCC)c(O)c(C(=O)C(C)CC)c2O)c1O (stereo not given),,> 128,,> 128,,2,,4,> 128,> 128,0.5
CCC(C)C(=O)c1c(O)c(CCC(C)C)c(O)c(-c2c(O)c(CCC(C)C)c(O)c(C(=O)C(C)CC)c2O)c1O (stereo not given),,> 128,,> 128,,4,,8,> 128,> 128,1
CCC(C)C(=O)c1c(O)cc(O)c2c1oc1c(C(=O)C(C)CC)c(O)cc(O)c12 (stereo not given),,> 128,,> 128,,32,,8,> 128,> 128,8
Oc1cc(O)c2c(c1)oc1cc(O)cc(O)c12,,> 128,,> 128,,> 128,,> 128,> 128,> 128,> 128
CCC(C)C(=O)c1c(O)cc(O)c(CCC(C)C)c1O (stereo not given),20 to 40,> 128,20 to 40,> 128,20 to 40,32,20 to 40,32,> 128,> 128,32
Cc1onc(-c2ccccc2)c1C(=O)N[C@@H]1C(=O)N2[C@@H]1SC(C)(C)[C@@H]2C(=O)O,,,,,,9.5,,≤ 0.3,,,150
CCC(C)C(=O)c1c(O)cc(O)cc1O (stereo not given),,> 128,,> 128,,64,,64,> 128,> 128,32
CN[C@H](CC(C)C)C(=O)N[C@H]1C(=O)N[C@@H](CC(N)=O)C(=O)N[C@H]2C(=O)N[C@H]3C(=O)N[C@H](C(=O)N[C@H](C(=O)O)c4cc(O)cc(O)c4-c4cc3ccc4O)[C@H](O)c3ccc(c(Cl)c3)Oc3cc2cc(c3O[C@@H]2O[C@H](CO)[C@@H](O)[C@H](O)[C@H]2O[C@H]2C[C@](C)(N)[C@H](O)[C@H](C)O2)Oc2ccc(cc2Cl)[C@H]1O [VANCOMYCIN HYDROCHLORIDE],,,,,,1.4,,0.7,,,5.5
CCCc1c(O)c(C(=O)C(C)CC)c2oc3c(C(=O)C(C)CC)c(O)c(CCC)c(O)c3c2c1O (stereo not given),,> 128,,> 128,,0.5,,0.5,> 128,> 128,0.5
